Measured values published in patent publication US9629861B2, “Compositions and methods for treating bacterial infections using ceftaroline” (Forest Laboratories Holdings Limited, priority 2009, dated 2017).

What was measured:
CYP2C8 [1] = conditions: human hepatocytes
CYP2C9 = target: T1, CYP2C9 (Homo sapiens, UniProt P11712); assay: CYP inhibition in human liver microsomes; type: in vitro ADME
T1 construct: In vitro studies in human liver microsomes; from tissue; host or cells: human liver microsomes
T1 sequence (P11712 whole entry): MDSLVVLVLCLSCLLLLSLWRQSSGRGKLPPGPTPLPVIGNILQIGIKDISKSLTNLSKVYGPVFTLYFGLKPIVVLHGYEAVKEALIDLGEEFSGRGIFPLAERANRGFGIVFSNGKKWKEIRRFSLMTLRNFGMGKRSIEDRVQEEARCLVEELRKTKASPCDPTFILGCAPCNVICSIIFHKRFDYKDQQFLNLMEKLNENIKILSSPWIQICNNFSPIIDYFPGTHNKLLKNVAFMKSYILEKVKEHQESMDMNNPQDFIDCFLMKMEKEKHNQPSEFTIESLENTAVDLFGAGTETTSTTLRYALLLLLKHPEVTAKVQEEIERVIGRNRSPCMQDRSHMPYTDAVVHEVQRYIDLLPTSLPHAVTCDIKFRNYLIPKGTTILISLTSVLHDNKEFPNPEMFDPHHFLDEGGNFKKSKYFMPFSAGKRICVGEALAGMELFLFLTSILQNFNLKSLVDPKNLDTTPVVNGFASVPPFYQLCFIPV

CYP2C8 [2] = target: T2, CYP2C8 (Homo sapiens, UniProt P10632); assay: CYP inhibition in human liver microsomes; type: in vitro ADME
T2 construct: In vitro studies in human liver microsomes; from tissue; host or cells: human liver microsomes
T2 sequence (P10632 whole entry): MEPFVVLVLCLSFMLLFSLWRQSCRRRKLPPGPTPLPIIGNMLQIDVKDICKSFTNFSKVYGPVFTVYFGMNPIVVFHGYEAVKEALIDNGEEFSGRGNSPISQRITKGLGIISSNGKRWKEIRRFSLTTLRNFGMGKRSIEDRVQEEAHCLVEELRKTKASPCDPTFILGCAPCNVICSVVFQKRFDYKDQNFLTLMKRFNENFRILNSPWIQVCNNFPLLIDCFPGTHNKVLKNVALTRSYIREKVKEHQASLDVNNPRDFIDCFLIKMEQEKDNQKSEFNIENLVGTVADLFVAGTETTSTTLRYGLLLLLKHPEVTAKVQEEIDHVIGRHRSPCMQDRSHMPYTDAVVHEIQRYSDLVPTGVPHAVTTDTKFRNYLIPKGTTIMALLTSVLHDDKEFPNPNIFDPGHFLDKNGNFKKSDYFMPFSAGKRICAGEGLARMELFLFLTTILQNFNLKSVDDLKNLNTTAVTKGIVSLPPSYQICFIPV

[3] = human, in vivo
CYP2C19 [4] = conditions: human hepatocytes
[5] = test system: complicated skin and skin structure infections (cSSSI); assay: Two Phase 3 studies in cSSSI, integrated; type: in vivo, human; conditions: co-primary CE and MITT populations
Method: A total of 1396 adults with clinically documented complicated skin and skin structure infections (cSSSI) were enrolled in two randomized, multi-center, multinational, double-blind, studies comparing 600 mg ceftaroline fosamil administered intravenously over 1 hour every 12 hours to vancomycin plus aztreonam [1 g vancomycin administered intravenously over 1 hour followed by 1 g aztreonam administered intravenously over 1 hour every 12 hours]. Patients with cSSSI (deep/extensive cellulitis, a major abscess, a wound infection [surgical or traumatic], infected insect bites, burns or ulcers, lower extremity infection in patients with diabetes mellitus or peripheral vascular disease), were enrolled in the studies. Treatment duration was 5 to 14 days. A switch to oral therapy was not allowed. The Modified Intent-to-Treat (MITT) population included all patients who received any amount of study drug according to their randomized treatment group.
The primary efficacy endpoint was clinical response at the Test of Cure (TOC) visit in the co-primary CE and MITT populations (Table 2). […] In a subgroup analysis (CE population), the comparative clinical cure rates between the ceftaroline group and the vancomycin plus aztreonam group were not affected by age, gender, race, ethnicity, or weight.

H. influenzae [6] = assay: Example 5 CAP study, outcome by baseline pathogen; type: in vivo
From the text: (§1) Per-pathogen clinical cure rate and favorable microbiological outcome rate at TOC in the mMITTE and ME Populations;

CYP1A1 = target: T3, CYP1A1 (Homo sapiens, UniProt P04798); assay: CYP inhibition in human liver microsomes; type: in vitro ADME
T3 construct: In vitro studies in human liver microsomes; from tissue; host or cells: human liver microsomes
T3 sequence (P04798 whole entry): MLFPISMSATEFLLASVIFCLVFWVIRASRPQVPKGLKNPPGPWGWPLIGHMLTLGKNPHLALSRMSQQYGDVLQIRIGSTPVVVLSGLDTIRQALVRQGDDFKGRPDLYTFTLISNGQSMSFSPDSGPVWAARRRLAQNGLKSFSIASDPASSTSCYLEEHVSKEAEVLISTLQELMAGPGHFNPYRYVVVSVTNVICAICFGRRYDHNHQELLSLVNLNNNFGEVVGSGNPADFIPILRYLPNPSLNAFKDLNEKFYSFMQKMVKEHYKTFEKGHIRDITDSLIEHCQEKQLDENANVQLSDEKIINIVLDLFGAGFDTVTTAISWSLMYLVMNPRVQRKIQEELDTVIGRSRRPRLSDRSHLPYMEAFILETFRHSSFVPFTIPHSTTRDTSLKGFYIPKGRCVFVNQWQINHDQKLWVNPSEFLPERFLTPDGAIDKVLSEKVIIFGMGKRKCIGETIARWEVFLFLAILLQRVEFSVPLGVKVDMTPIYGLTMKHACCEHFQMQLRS

K. pneumoniae = assay: Example 4 CAP study, outcome by baseline pathogen; type: in vivo, Klebsiella pneumoniae
From the text: as §1

[7] = human, in vivo; remark: listed apart in the source
CYP3A4 = target: T4, CYP3A4 (Homo sapiens, UniProt P08684); assay: CYP inhibition in human liver microsomes; type: in vitro ADME
T4 construct: In vitro studies in human liver microsomes; from tissue; host or cells: human liver microsomes
T4 sequence (P08684 whole entry): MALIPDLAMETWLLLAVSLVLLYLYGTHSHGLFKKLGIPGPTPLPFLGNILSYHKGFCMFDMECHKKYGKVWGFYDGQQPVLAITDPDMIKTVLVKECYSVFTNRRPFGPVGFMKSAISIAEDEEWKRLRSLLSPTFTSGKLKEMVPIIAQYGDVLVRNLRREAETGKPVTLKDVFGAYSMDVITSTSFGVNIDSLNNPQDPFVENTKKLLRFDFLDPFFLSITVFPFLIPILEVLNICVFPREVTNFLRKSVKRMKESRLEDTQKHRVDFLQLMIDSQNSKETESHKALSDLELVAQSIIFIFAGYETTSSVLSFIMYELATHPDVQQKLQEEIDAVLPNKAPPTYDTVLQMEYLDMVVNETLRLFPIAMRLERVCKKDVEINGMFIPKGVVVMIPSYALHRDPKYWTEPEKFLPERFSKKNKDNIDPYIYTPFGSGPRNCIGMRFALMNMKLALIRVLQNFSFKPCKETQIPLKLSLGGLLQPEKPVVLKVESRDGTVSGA

S. aureus [8] = assay: Example 5 CAP study, outcome by baseline pathogen; type: in vivo, Staphylococcus aureus
From the text: as §1

H. parainfluenzae = assay: Example 4 CAP study, outcome by baseline pathogen; type: in vivo
From the text: as §1

S. aureus [9] = assay: Example 4 CAP study, outcome by baseline pathogen; type: in vivo, Staphylococcus aureus
From the text: as §1

[10] = Pharmacokinetics in adolescent patients; type: in vivo, human; conditions: adolescents 12 to 17; 8 mg/kg ceftaroline fosamil (or 600 mg if >75 kg)
Method: The pharmacokinetics of ceftaroline were evaluated in adolescent patients (ages 12 to 17) with normal renal function.

CYP2B6 [11] = target: T5, CYP2B6 (Homo sapiens, UniProt P20813); assay: CYP inhibition in human liver microsomes; type: in vitro ADME
T5 construct: In vitro studies in human liver microsomes; from tissue; host or cells: human liver microsomes
T5 sequence (P20813 whole entry): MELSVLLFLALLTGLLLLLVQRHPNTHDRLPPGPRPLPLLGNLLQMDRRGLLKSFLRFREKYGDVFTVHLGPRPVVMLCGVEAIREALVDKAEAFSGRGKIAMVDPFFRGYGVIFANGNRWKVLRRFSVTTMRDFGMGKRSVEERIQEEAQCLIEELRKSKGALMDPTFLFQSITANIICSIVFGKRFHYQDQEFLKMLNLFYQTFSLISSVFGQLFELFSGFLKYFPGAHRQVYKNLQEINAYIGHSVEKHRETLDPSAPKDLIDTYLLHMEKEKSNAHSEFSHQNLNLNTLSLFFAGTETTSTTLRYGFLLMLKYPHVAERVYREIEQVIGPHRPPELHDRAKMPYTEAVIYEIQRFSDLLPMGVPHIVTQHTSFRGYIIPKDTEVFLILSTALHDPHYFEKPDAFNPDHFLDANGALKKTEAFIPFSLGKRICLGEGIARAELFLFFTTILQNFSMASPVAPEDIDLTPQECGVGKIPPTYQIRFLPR

CYP2C19 [12] = target: T6, CYP2C19 (Homo sapiens, UniProt P33261); assay: CYP inhibition in human liver microsomes; type: in vitro ADME
T6 construct: In vitro studies in human liver microsomes; from tissue; host or cells: human liver microsomes
T6 sequence (P33261 whole entry): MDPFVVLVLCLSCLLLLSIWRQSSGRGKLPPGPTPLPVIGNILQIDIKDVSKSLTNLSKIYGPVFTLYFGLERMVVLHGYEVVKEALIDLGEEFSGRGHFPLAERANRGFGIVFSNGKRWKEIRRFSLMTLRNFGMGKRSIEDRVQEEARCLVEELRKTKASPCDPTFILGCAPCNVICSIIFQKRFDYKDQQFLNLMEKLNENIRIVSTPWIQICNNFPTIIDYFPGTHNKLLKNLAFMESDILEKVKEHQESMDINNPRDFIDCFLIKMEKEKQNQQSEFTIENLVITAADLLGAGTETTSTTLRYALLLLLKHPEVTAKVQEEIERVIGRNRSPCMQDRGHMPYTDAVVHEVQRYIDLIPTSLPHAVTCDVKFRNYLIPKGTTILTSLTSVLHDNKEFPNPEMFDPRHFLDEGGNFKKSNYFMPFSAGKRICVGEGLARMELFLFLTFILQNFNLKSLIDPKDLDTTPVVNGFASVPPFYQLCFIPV

H. influenzae [13] = assay: Example 4 CAP study, outcome by baseline pathogen; type: in vivo, Haemophilus influenzae
From the text: as §1

[14] = test system: Community-Acquired Bacterial Pneumonia (CABP); assay: Two Phase 3 studies in CABP, integrated; type: in vivo, human; conditions: for Clinical Cure Rate at TOC / Treatment Difference in clinical cure rate at TOC: integrated CABP studies; for Clinical Cure Rate at TOC: after 5 to 7 days of therapy; for Treatment Difference in clinical cure rate at TOC / Weighted treatment difference (95% CI): versus ceftriaxone; for Weighted treatment difference (95% CI): combined CABP studies
Method: In both treatment groups of CABP Study 1, two doses of oral clarithromycin (500 mg q12h), were administered as adjunctive therapy starting on Study Day 1. No adjunctive macrolide therapy was used in CABP Study 2. Patients with new or progressive pulmonary infiltrate(s) on chest radiography and clinical signs and symptoms consistent with CABP with the need for hospitalization and IV therapy were enrolled in the studies. Treatment duration was 5 to 7 days. A switch to oral therapy was not allowed. The Modified Intent-to-Treat Efficacy (MITTE) population included all patients who received any amount of study drug according to their randomized treatment group and were in PORT (Pneumonia Outcomes Research Team) Risk Class III or IV.
The primary efficacy endpoint was the clinical response at the Test of Cure (TOC) visit in the co-primary CE and MITTE populations (Table 4). In a subgroup analysis (CE population), the comparative clinical cure rates between the ceftaroline group and the ceftriaxone group were not affected by age, gender, race, ethnicity, or weight.

CYP2B6 [15] = assay: CYP induction in human hepatocytes; type: in vitro ADME
CYP2D6 = target: T7, CYP2D6 (Homo sapiens, UniProt P10635); assay: CYP inhibition in human liver microsomes; type: in vitro ADME
T7 construct: In vitro studies in human liver microsomes; from tissue; host or cells: human liver microsomes
T7 sequence (P10635 whole entry): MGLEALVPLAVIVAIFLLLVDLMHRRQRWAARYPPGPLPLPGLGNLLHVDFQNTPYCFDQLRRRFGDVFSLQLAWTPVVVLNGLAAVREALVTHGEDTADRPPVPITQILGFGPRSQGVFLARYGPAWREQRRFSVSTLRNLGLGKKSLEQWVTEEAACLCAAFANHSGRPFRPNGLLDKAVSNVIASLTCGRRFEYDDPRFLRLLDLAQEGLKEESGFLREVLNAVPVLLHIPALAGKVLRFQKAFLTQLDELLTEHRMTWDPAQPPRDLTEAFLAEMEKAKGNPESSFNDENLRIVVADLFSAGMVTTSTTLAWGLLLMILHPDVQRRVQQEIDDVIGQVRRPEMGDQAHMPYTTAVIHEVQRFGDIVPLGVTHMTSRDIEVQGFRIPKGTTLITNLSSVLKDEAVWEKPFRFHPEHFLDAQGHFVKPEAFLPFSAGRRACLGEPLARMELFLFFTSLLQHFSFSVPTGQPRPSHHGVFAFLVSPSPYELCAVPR

[16] = Pharmacokinetics of ceftaroline after IV infusion of ceftaroline fosamil in adults with normal renal function; design: species or system human; conditions: in vivo
From the text: The standard deviation is shown in brackets.

[17] = Pharmacokinetics in healthy elderly subjects; type: in vivo, human; conditions: healthy elderly (≧65 years); 600 mg IV dose

Compound: CCO/N=C(\C(=O)N[C@@H]1C(=O)N2C(C(=O)[O-])=C(Sc3nc(-c4cc[n+](C)cc4)cs3)CS[C@H]12)c1nsc(N)n1 [Ceftaroline]
- induction of CYP2C8 (CYP2C8 [1]): not inducers
- inhibition of CYP2C9 (CYP2C9): neither ceftaroline fosamil nor ceftaroline inhibits
- inhibition of CYP2C8 (CYP2C8 [2]): neither ceftaroline fosamil nor ceftaroline inhibits
- AUC higher in female than in male subjects [3]: 6-15%
- Cmax higher in female than in male subjects [3]: 17-22%
- induction of CYP2C19 (CYP2C19 [4]): not inducers
- clinical response at TOC compared with vancomycin plus aztreonam [5]: non-inferior
- Favorable Microbiological Outcome at TOC by Baseline Pathogen (H. influenzae [6]; ME): 2/3 (66.7) %
- Clinical Cure Rate at the TOC Visit by Baseline Pathogen (H. influenzae [6]; ME population): 2/3 (66.7) %
- inhibition of CYP1A1 (CYP1A1): neither ceftaroline fosamil nor ceftaroline inhibits
- Favorable Microbiological Outcome at TOC by Baseline Pathogen (K. pneumoniae; ME): 6/6 (100.0) %
- Clinical Cure Rate at the TOC Visit by Baseline Pathogen (K. pneumoniae; ME population): 6/6 (100.0) %
- exposure (Cmax and AUC) with concomitant inhibitors, inducers and substrates of cytochrome P450 [7]: did not identify any clinically relevant increases
- inhibition of CYP3A4 (CYP3A4): neither ceftaroline fosamil nor ceftaroline inhibits
- Favorable Microbiological Outcome at TOC by Baseline Pathogen (S. aureus [8]; ME): 8/10 (80.0) %
- Clinical Cure Rate at the TOC Visit by Baseline Pathogen (S. aureus [8]; ME population): 8/10 (80.0) %
- Favorable Microbiological Outcome at TOC by Baseline Pathogen (H. parainfluenzae; ME): 9/9 (100.0) %
- Clinical Cure Rate at the TOC Visit by Baseline Pathogen (H. parainfluenzae; ME population): 9/9 (100.0) %
- Favorable Microbiological Outcome at TOC by Baseline Pathogen (S. aureus [9]; ME): 11/15 (73.3) %
- Clinical Cure Rate at the TOC Visit by Baseline Pathogen (S. aureus [9]; ME population): 10/15 (66.7) %
- mean AUC less than in adult subjects after 600 mg [10]: ~23%
- mean Cmax less than in adult subjects after 600 mg [10]: about 10%
- inhibition of CYP2B6 (CYP2B6 [11]): neither ceftaroline fosamil nor ceftaroline inhibits
- inhibition of CYP2C19 (CYP2C19 [12]): neither ceftaroline fosamil nor ceftaroline inhibits
- Favorable Microbiological Outcome at TOC by Baseline Pathogen (H. influenzae [13]; ME): 13/15 (86.7) %
- Clinical Cure Rate at the TOC Visit by Baseline Pathogen (H. influenzae [13]; ME population): 13/15 (86.7) %
- Clinical Cure Rate at TOC ([14]; CE population): 387/459 (84.3) %
- Clinical Cure Rate at TOC ([14]; MITTE population): 479/580 (82.6) %
- Treatment Difference in clinical cure rate at TOC ([14]; CE): 6.7 (1.6, 11.8) %
- Treatment Difference in clinical cure rate at TOC ([14]; CE, listed as ceftaroline): 6.7%
- Weighted treatment difference (95% CI) ([14]; ME): 9.7 (0.7, 18.8) %
- Weighted treatment difference (95% CI) ([14]; ME, listed as ceftaroline): 9.7%
- Treatment Difference in clinical cure rate at TOC ([14]; MITTE): 6.0 (1.4, 10.7) %
- Weighted treatment difference (95% CI) ([14]; mMITTE): 8.7 (−0.0, 17.4) %
- Weighted treatment difference (95% CI) ([14]; mMITTE, listed as ceftaroline): 8.7%
- induction of CYP2B6 (CYP2B6 [15]): not inducers
- inhibition of CYP2D6 (CYP2D6): neither ceftaroline fosamil nor ceftaroline inhibits
- CL/Fm ([16]; human): 9.58 (1.85) L/h
- mean plasma terminal elimination half-life ([16]; human): approximately 2.5 hours
- Cmax and AUC versus dose [16]: increased approximately in proportion to increases in dose
- Cmax, elderly versus younger subjects [17]: not significantly different
